The subject of assay [1] is inducible OA-NOS in OA-affected cartilage. The assay can be described thus: NO (nitrite) release from OA-affected cartilage in organ culture. The assay is classed as cell-based, human. To be noted: for inhibition of NO production in OA-affected cartilage: 5-80 μg/mL, 24-72 h, ex vivo; for IC50: Homo sapiens, 72 h. The text has this:
We examined whether tetracyclines, e.g., doxycycline or minocycline, could block human OA-NOS activity under ex vivo conditions. Generally accepted pharmacologically relevant concentrations were selected for this study based on previous reports (Greenwald 1994, Yu et al. 1991, Cole et al. 1994, Mallya et al. 1994). OA-affected cartilage was obtained from patients with advanced OA undergoing knee replacement surgery and free of steroidal/nonsteroidal antiinflammatory drugs for at least 2 wk before surgery. OA-affected cartilage slices (FIGs. 1A-1C) were incubated in 0.1% BSA/endotoxin-free medium with 5-80 μg/mL of doxycycline or minocycline (Sigma Chemical Co., St. Louis, Mo.) for 24, 48 and 72 h in ex vivo conditions.
The assay of OA-iNOS in organ culture was basically carried out as described previously (Amin et al. 1995a). Briefly, the OA-affected cartilage was cultured in the presence or absence (Control) of doxycycline and minocycline at 5-80 μg/mL, for 24-72 h in an incubator (37° C.). Activity of NOS was monitored at different time intervals by estimating the amount of the stable end-product, nitrite, in the medium by a modified Griess reaction (Gilliam et al. 1993) using an ELISA reader. The amount of NO spontaneously released (as measured by nitrite accumulation) at 0, 24, 48 and 72 h was 0, 4.8±0.38, 16.4±0.7, and 17.8±0.9 μM, respectively. Data are expressed as μM nitrite released±(SD), n=3-4. The statistics were derived using unpaired Student's t test. FIGS. 1A-1C show a time series of graphs (1A=24 h; 1B=48 h; and IC=72 h) summarizing data representing one of three identical experiments with samples from different patients.

The test system of assay [2] is iNOS in RAW 264.7 murine macrophage cells. The experiment in a line: nitrite accumulation in LPS-stimulated RAW 264.7 cells. The format is cell-based. To be noted: for IC50: Mus musculus. As for the experimental part:
RAW 264.7 murine macrophage cells (American Type Culture Collection, Rockville, Md.) were incubated with and without doxycycline or minocycline (5-80 μg/mL) for 1-2 h followed by activation through addition of 100 ng/mL of LPS (Sigma Chemical Co., St. Louis, Mo.) to induce iNOS (Stuehr et al. 1991). After 14-20 h of incubation, the medium was used to estimate nitrite accumulation by the modified Griess reaction (Gilliam et al. 1993). The values are represented as μM of nitrite accumulated at a given time interval; n=3. The statistics were derived using unpaired Student's t test. The data represent one of three similar experiments.

The subject of another assay is iNOS. The experiment in a line: iNOS activity (L-arginine-to-L-citrulline) in cell-free extracts of cells treated with modulator before LPS. The assay is classed as cell-based, murine. As for the experimental part:
Murine macrophage cells (RAW 264.7) were incubated with 20-80 μg/mL doxycycline or minocycline, 10 μM hydrocortisone (Sigma Chemical Co., St. Louis, Mo.), or 75 μM L-NMMA for 1-2 h, followed by addition of LPS at 100 ng/mL and incubation for 16-18 h. Cell-free extracts were prepared at the end of each time period. Specific activity of iNOS was determined in the cell-free extracts by monitoring the conversion of L-[^3 H]-arginine to L-[^3 H]-citrulline as described by Amin et al. (1995b) and Vyas et al. (1996).
Cell-free extracts were prepared as follows: Following induction by incubation with LPS, the cells were pelleted at 4° C. and resuspended in Tris buffer (10 mM, pH 7.4) containing 10 μg/mL each chymostatin, antipain, leupeptin and pepstatin, 1 mM DTT and 1 mM PMSF. Cells were lysed in a Polytron PT 1200 homogenizer (Kinematica AG, Switzerland) after 3 cycles of rapid freeze-thawing. The lysate was centrifuged at 16,000 rpm for 60 min at 4° C., and the supernatants were used as cell-free extracts.
The protein in the extracts was measured by BCA assay reagent using BSA as standard (Smith et al. 1985). The reaction mixture for iNOS assay consists of Tris 50 mM (pH 7.8); BSA 1 mg/mL; DTT 1 mM; CaCl2, 2 mM; FAD 10 μM; BH4 10,μM; L-arginine 30 μM; NADPH 1 mM. The reaction mixture was spiked with 1μL (250 nM) of L-[^3 H]-arginine (Dupont NEN, Boston, Mass.) (1 mCi/mL=37.0 MBq/mL). After 20 min the assays were terminated by heating the reaction mixture at 90° C. for 5 min. Ten microiters (≈100,000 cpm) of the supernatant was spotted on activated AVICEL TLC plates (Analtech, Newark, Del.). The TLC plates were developed in a solvent system consisting of ethanol:water:ammonia (80:16:4). Quantitation of the spot for L-[^3 H]-citrulline was performed by a Bioscan System 200 Imaging Scanner.

The next assay relates to 133 kD iNOS. The experiment in a line: iNOS protein expression in LPS-activated RAW 264.7 cells (Western blot). The format is cell-based, murine. As for the experimental part:
RAW 264.7 cells were activated with 100 ng/mL LPS for 16-18 h, with and without doxycycline or minocycline (20-80 μg/mL) or with hydrocortisone (10 μM). Cell-free extracts were prepared as described above. The extract s were analyzed for 133 kD iNOS by Western blotting, using specific anti-iNOS antibodies.
Equal amounts of protein (25-50 μg) estimated by BCA reagent (Pierce, Rockford, Ill.) were loaded onto SDS-PAGE gels and stained to verify the concentrations of various protein fractions by examining the intensities of the protein bands on the gels. Western blot analysis was carried out from the same cell extracts. The Western-blotted membrane was probed with a specific anti-murine iNOS monoclonal antibody (Transduction Laboratories, Lexington, Ky.), as specified by the supplier. The same blot was also probed with an anti-actin antibody generously provided by Dr. James L. Lessard (Children's Hospital Medical Center, Cincinnati, Ohio). The blots were developed using the ECL Western blot system (Amersham, Arlington Heights, Ill.). Quantitation of the bands was performed using a densitometer from Molecular Dynamics (Sunnyvale, Calif.). FIG. 5 is representative.
(A western blot detects proteins with antibodies after separation by electrophoresis.)

≈ marks a conversion by molar mass, not a printed value. Where two headings read alike, the source gives them in different places.

Usually IC50 stands for the concentration that inhibits the measured activity by half. `C[C@H]1c2cccc(O)c2C(O)=C2C(=O)[C@]3(O)C(O)=C(C(N)=O)C(=O)[C@@H](N(C)C)[C@@H]3[C@@H](O)[C@@H]21` [doxycycline]: the “inhibition of NO production in OA-affected cartilage” value in assay [1] is “significantly inhibited NO production in OA-affected cartilage in a dose-dependent manner”. Also, the IC50 in assay [1] is 32 µg/mL (≈ 72 µM); in assay [2] (RAW264.7, 14 h of incubation, read-out: IC50), 72 µg/mL (≈ 162 µM); in assay [2] (RAW264.7, 20 h of incubation, read-out: IC50) it was 22 µg/mL (≈ 49.5 µM). Moreover, in assay [2], the “concentration at which inhibitory effects on iNOS expression (mRNA, specific activity and nitrite accumulation) reach a plateau” value fell in the range of 40 to 80 µg/mL. Besides, the “concentration required to inhibit iNOS-mediated production of NO by >50%” value in assay [2] (compared to minocycline, 14 h and 20 h) is listed as “significantly higher concentrations”. In the assay with iNOS, the “IC50 to inhibit iNOS activity in cell lysates” value lay in the range of 20 to 30 µg/mL. In addition, the “inhibition of iNOS activity” value is reported as 57% in the assay on iNOS (20 μg/mL), 72% in the assay with iNOS (40 μg/mL) and 85% in the assay with iNOS (80 μg/mL). The “inhibition of iNOS protein expression” value with 133 kD iNOS (20 μg/mL) was 11%; with 133 kD iNOS (40 μg/mL) it was 24%; in the assay on 133 kD iNOS (80 μg/mL), 65%.
Turning to `CN(C)c1ccc(O)c2c1C[C@H]1C[C@H]3[C@H](N(C)C)C(O)=C(C(N)=O)C(=O)[C@@]3(O)C(O)=C1C2=O` [minocycline], in assay [1], the “inhibition of NO production in OA-affected cartilage” value was “significantly inhibited NO production in OA-affected cartilage in a dose-dependent manner”. Besides, the IC50 in assay [1] was determined as 54 µg/mL (≈ 118 µM); in assay [2] (RAW264.7, 14 h), 17 µg/mL (≈ 37.2 µM); in assay [2] (RAW264.7, 20 h), 12 µg/mL (≈ 26.2 µM). Further, the “concentration at which inhibitory effects on iNOS expression (mRNA, specific activity and nitrite accumulation) reach a plateau” value in assay [2] fell in the range of 40 to 80 µg/mL. Moreover, the “IC50 to inhibit iNOS activity in cell lysates” value with iNOS lay within 20 to 30 µg/mL. Further, the “inhibition of iNOS activity” value in the assay with iNOS (20 μg/mL) is 45%; in the assay with iNOS (40 μg/mL), 69%; in the assay with iNOS (80 μg/mL), 69%. Also, the “inhibition of iNOS protein expression” value in the assay on 133 kD iNOS (20 μg/mL) was 14%; in the assay on 133 kD iNOS (40 μg/mL), 49%; with 133 kD iNOS (80 μg/mL) it was 83%.

Values taken from patent publication US5789395A, “Method of using tetracycline compounds for inhibition of endogenous nitric oxide production” (The Research Foundation of State University of New York, priority 1996, dated 1998).
